Assay results as given in patent publication US10703760B2, “Morphic forms of marizomib and uses thereof” (Celgene International II Sàrl, priority 2016, dated 2020).

Columns and labels:
Format in all cases: physicochemical
[1] = Polymorphism screening of Sample 1 (solubility observations, maturation, cooling, XRPD); parameters: key to Obs. at r.t. 10 vol. / Obs. at r.t. 20 vol. / Obs. at r.t. 30 vol. / Obs. at r.t. 40 vol. / Obs. at r.t. 50 vol. / Maturation 50° C./r.t. / Cooling at 5° C.: ✓ = Soluble; X = Insoluble,; conditions: for Maturation 50° C./r.t.: heat-cool cycles 24 h; for Cooling at 5° C.: held at 5° C. for 48 h
Method: Polymorphism studies on marizomib were carried out in different solvents and conditions to understand the polymorphic behavior of the free form. Marizomib (Sample 1, 30 mg) was dissolved or suspended in the given solvent at room temperature. Solvent was added until the material dissolved or up to a maximum of 50 volumes. The suspensions were matured between 50° C. and room temperature heat-cool cycles (8 h per cycle) for 24 h. The solutions were cooled to and held at 5° C. for 48 h. If no solid was obtained then the solutions were allowed to evaporate slowly at room temperature. All the recovered solids were analyzed by XRPD.

[2] = Hydrolysis of marizomib / chemical purity by HPLC after solvent exposure; conditions: starting material 98.2%
Method: Purity analysis was performed on an Agilent HP1100 series system equipped with a diode array detector and using ChemStation software vB.04.03 using the method set forth in Table-5.
30 mg of Sample 1 was suspended in the given solvent shown in Table 6 (1 ml) at room temperature. The samples were matured between 50° C. and room temperature heat-cool cycles (8 h per cycle) for 96 h. The solids were filtered, air dried and analyzed by XRPD.

[3] = Variable temperature XRPD
Method: Samples run under non-ambient conditions were mounted on a silicon wafer with heat-conducting compound. The sample was then heated to the appropriate temperature at 20° C./min and subsequently held isothermally for 1 minute before data collection was initiated.

[4] = Thermogravimetric analysis (TGA); conditions: heated at 10° C./min under nitrogen
Method: TGA data were collected on a TA Instruments Q500 TGA, equipped with a 16-position auto-sampler. The instrument was temperature calibrated using certified Alumel™ and Nickel. Typically 5-10 mg of each sample was loaded onto a pre-tared aluminum DSC pan and heated at 10° C./min from ambient temperature to 350° C. A nitrogen purge at 60 ml/min was maintained over the sample.
TG analyses were performed using a TA Instruments Q5000 IR thermogravimetric analyzer. Temperature calibration was performed using nickel and Alumel™. Each sample was placed in an aluminum pan. The sample was hermetically sealed, the lid pierced, then inserted into the TG furnace. The furnace was heated under nitrogen.

C[C@@]12OC(=O)[C@]1([C@@H](O)[C@@H]1C=CCCC1)NC(=O)[C@@H]2CCCl [Sample 1, marizomib]
remained as Form I: Morphic form on heating (variable temperature XRPD) ([3]; 25° C. to 160° C.)
about 160 °C: Discoloration (white to yellow) temperature; melting and/or degradation after about five minutes hold ([3]; during variable temperature XRPD)
97.4%: Chemical purity (HPLC) of solid isolated from polymorphism screen ([2]; isolated from EtOH experiment)
X: Obs. at r.t. 10 vol. ([1]; 2-Propanol) | Obs. at r.t. 20 vol. ([1]; 2-Propanol) | Obs. at r.t. 30 vol. ([1]; 2-Propanol) | Obs. at r.t. 40 vol. ([1]; 2-Propanol) | Obs. at r.t. 50 vol. ([1]; 2-Propanol) | Maturation 50° C./r.t. ([1]; 2-Propanol) | Obs. at r.t. 10 vol. ([1]; Acetone) | Obs. at r.t. 20 vol. ([1]; Acetone) | Obs. at r.t. 30 vol. ([1]; Acetone) | Obs. at r.t. 40 vol. ([1]; Acetone) | Obs. at r.t. 50 vol. ([1]; Acetone) | Obs. at r.t. 10 vol. ([1]; Acetonitrile) | Obs. at r.t. 20 vol. ([1]; Acetonitrile) | Obs. at r.t. 30 vol. ([1]; Acetonitrile) | Obs. at r.t. 40 vol. ([1]; Acetonitrile) | Obs. at r.t. 50 vol. ([1]; Acetonitrile) | Maturation 50° C./r.t. ([1]; Acetonitrile) | Obs. at r.t. 10 vol. ([1]; Anisole) | Obs. at r.t. 20 vol. ([1]; Anisole) | Obs. at r.t. 30 vol. ([1]; Anisole) | Obs. at r.t. 40 vol. ([1]; Anisole) | Obs. at r.t. 50 vol. ([1]; Anisole) | Maturation 50° C./r.t. ([1]; Anisole) | Obs. at r.t. 10 vol. ([1]; Chloroform) | Obs. at r.t. 10 vol. ([1]; Cumene) | Obs. at r.t. 20 vol. ([1]; Cumene) | Obs. at r.t. 30 vol. ([1]; Cumene) | Obs. at r.t. 40 vol. ([1]; Cumene) | Obs. at r.t. 50 vol. ([1]; Cumene) | Maturation 50° C./r.t. ([1]; Cumene) | Obs. at r.t. 10 vol. ([1]; DMA) | Obs. at r.t. 10 vol. ([1]; DMF) | Obs. at r.t. 10 vol. ([1]; Dichloromethane) | Obs. at r.t. 20 vol. ([1]; Dichloromethane) | Obs. at r.t. 30 vol. ([1]; Dichloromethane) | Obs. at r.t. 40 vol. ([1]; Dichloromethane) | Obs. at r.t. 50 vol. ([1]; Dichloromethane) | Maturation 50° C./r.t. ([1]; Dichloromethane) | Obs. at r.t. 10 vol. ([1]; Dimethyl sulfoxide) | Obs. at r.t. 20 vol. ([1]; Dimethyl sulfoxide) | Obs. at r.t. 30 vol. ([1]; Dimethyl sulfoxide) | Obs. at r.t. 40 vol. ([1]; Dimethyl sulfoxide) | Obs. at r.t. 50 vol. ([1]; Dimethyl sulfoxide) | Obs. at r.t. 10 vol. ([1]; Ethanol) | Obs. at r.t. 20 vol. ([1]; Ethanol) | Obs. at r.t. 30 vol. ([1]; Ethanol) | Obs. at r.t. 40 vol. ([1]; Ethanol) | Obs. at r.t. 50 vol. ([1]; Ethanol) | Maturation 50° C./r.t. ([1]; Ethanol) | Obs. at r.t. 10 vol. ([1]; Ethyl acetate) | Obs. at r.t. 20 vol. ([1]; Ethyl acetate) | Obs. at r.t. 30 vol. ([1]; Ethyl acetate) | Obs. at r.t. 40 vol. ([1]; Ethyl acetate) | Obs. at r.t. 50 vol. ([1]; Ethyl acetate) | Obs. at r.t. 10 vol. ([1]; Isopropyl acetate) | Obs. at r.t. 20 vol. ([1]; Isopropyl acetate) | Obs. at r.t. 30 vol. ([1]; Isopropyl acetate) | Obs. at r.t. 40 vol. ([1]; Isopropyl acetate) | Obs. at r.t. 50 vol. ([1]; Isopropyl acetate) | Maturation 50° C./r.t. ([1]; Isopropyl acetate) | Obs. at r.t. 10 vol. ([1]; MEK) | Obs. at r.t. 20 vol. ([1]; MEK) | Obs. at r.t. 30 vol. ([1]; MEK) | Obs. at r.t. 40 vol. ([1]; MEK) | Obs. at r.t. 50 vol. ([1]; MEK) | Obs. at r.t. 10 vol. ([1]; MIBK) | Obs. at r.t. 20 vol. ([1]; MIBK) | Obs. at r.t. 30 vol. ([1]; MIBK) | Obs. at r.t. 40 vol. ([1]; MIBK) | Obs. at r.t. 50 vol. ([1]; MIBK) | Maturation 50° C./r.t. ([1]; MIBK) | Obs. at r.t. 10 vol. ([1]; Nitromethane) | Obs. at r.t. 20 vol. ([1]; Nitromethane) | Obs. at r.t. 30 vol. ([1]; Nitromethane) | Obs. at r.t. 40 vol. ([1]; Nitromethane) | Obs. at r.t. 50 vol. ([1]; Nitromethane) | Maturation 50° C./r.t. ([1]; Nitromethane) | Obs. at r.t. 10 vol. ([1]; Tetrahydrofuran) | Obs. at r.t. 10 vol. ([1]; Toluene) | Obs. at r.t. 20 vol. ([1]; Toluene) | Obs. at r.t. 30 vol. ([1]; Toluene) | Obs. at r.t. 40 vol. ([1]; Toluene) | Obs. at r.t. 50 vol. ([1]; Toluene) | Maturation 50° C./r.t. ([1]; Toluene) | Obs. at r.t. 10 vol. ([1]; n-Heptane) | Obs. at r.t. 20 vol. ([1]; n-Heptane) | Obs. at r.t. 30 vol. ([1]; n-Heptane) | Obs. at r.t. 40 vol. ([1]; n-Heptane) | Obs. at r.t. 50 vol. ([1]; n-Heptane) | Maturation 50° C./r.t. ([1]; n-Heptane) | Obs. at r.t. 10 vol. ([1]; tert-Butylmethyl ether) | Obs. at r.t. 20 vol. ([1]; tert-Butylmethyl ether) | Obs. at r.t. 30 vol. ([1]; tert-Butylmethyl ether) | Obs. at r.t. 40 vol. ([1]; tert-Butylmethyl ether) | Obs. at r.t. 50 vol. ([1]; tert-Butylmethyl ether) | Maturation 50° C./r.t. ([1]; tert-Butylmethyl ether)
96.8%: Chemical purity (HPLC) of solid isolated from polymorphism screen ([2]; isolated from EtOAc experiment)
✓: Maturation 50° C./r.t. ([1]; Acetone) | Cooling at 5° C. ([1]; Acetone) | Obs. at r.t. 20 vol. ([1]; Chloroform) | Cooling at 5° C. ([1]; Chloroform) | Obs. at r.t. 20 vol. ([1]; DMA) | Cooling at 5° C. ([1]; DMA) | Obs. at r.t. 20 vol. ([1]; DMF) | Cooling at 5° C. ([1]; DMF) | Maturation 50° C./r.t. ([1]; Dimethyl sulfoxide) | Cooling at 5° C. ([1]; Dimethyl sulfoxide) | Maturation 50° C./r.t. ([1]; Ethyl acetate) | Cooling at 5° C. ([1]; Ethyl acetate) | Maturation 50° C./r.t. ([1]; MEK) | Cooling at 5° C. ([1]; MEK) | Obs. at r.t. 20 vol. ([1]; Tetrahydrofuran) | Cooling at 5° C. ([1]; Tetrahydrofuran)
Form I was the only form obtained: Morphic form obtained from polymorphism screen (XRPD) ([1]; 20 solvents, maturation, cooling, evaporation)

C[C@@]12OC(=O)[C@]1([C@@H](O)[C@@H]1C=CCCC1)NC(=O)[C@@H]2CCCl [Sample 3, marizomib]
about 175 °C: TGA: no weight loss observed until (weight loss can be due to sample degradation) [4]
